Laboratory results published in patent publication US9296728B2, “Therapeutic compounds” (Regents of the University of Minnesota, priority 2012, dated 2016).
Several values for one entry are separate records, joined by “and”; a condition that tells them apart may be missing. Equal entries are not always repeated. Where two headings read alike, the source gives them in different places.

Legend:
Format in all cases: in vivo
[1] = Pharmacokinetic study of Compound 20 in ICR mice; settings: for CLz/F / t1/2Z / concentration at 0 h / concentration at 0.083 h / concentration at 0.25 h / concentration at 0.5 h / concentration at 1 h / concentration at 2 h / concentration at 4 h / concentration at 6 h / concentration at 8 h / concentration at 24 h / AUC(0-inf) / AUC(0-t) / Cmax / Tmax / Vd/F: plasma; for CLz/F / t1/2Z / AUC(0-inf) / AUC(0-t) / Cmax / Tmax / Vd/F: mean; for concentration at 0 h / concentration at 0.083 h / concentration at 0.25 h / concentration at 0.5 h / concentration at 1 h / concentration at 2 h / concentration at 4 h / concentration at 6 h / concentration at 8 h / concentration at 24 h / AUC(0-inf) / AUC(0-t) / Cmax / Tmax / Vd/F: male, mouse; for concentration at 0 h / concentration at 0.083 h / concentration at 0.25 h / concentration at 0.5 h / concentration at 1 h / concentration at 2 h / concentration at 4 h / concentration at 6 h / concentration at 8 h / concentration at 24 h: ICR, 100 mg/kg; for concentration at 6 h / concentration at 24 h: n = 3; for Vd/F: read-out: Vz/F
Procedure: 60 male ICR mice were split into two groups of 30. In each group the mice were prescribed Compound 20 at a dosage of 100 mg/kg. This dose was administered orally in group 1 and intraperitoneally in group 2. Each group of 30 mice was subdivided into groups of 3 mice. Blood samples were taken through orbital sinus method at 0, 0.083, 0.25, 0.5, 1, 2, 4, 6, 8 and 24 hours after administering Compound 20 and taken into tubes with anticoagulant at room temperature at least 30 minutes prior to centrifugation, then centrifuged at 10000 rpm for 5 minutes at 4° C. to separate plasma from the blood samples. Following centrifugation, the resulting serum was transferred to clean tubes and stored frozen at −80° C. Immediately following the blood samples, the brain tissue samples of mice were removed and stored frozen at −80° C.
A 20% brain homogenate was prepared by weighing brain tissue sample and adding, corresponding volume of saline into the manual homogenator. The dilution factor was 5 (w/v=1 g: 4 mL). The brain tissue sample was grinded slowly and repeatedly until it has become homogenous.
Plasma and Brain samples were centrifuged at 15777×g for 5 minutes, and 180 ul of supernatant was placed in a 96-well assay plate. To each well, 200 ul of a 50% ACN/H2O was added and the plates were shake-mixed for 3 minutes. 5 ul aliquots of each well were then analyzed using LC-MS/MS.
The standard non-compartmental model was used to generate the pharmacokinetic parameters: Cmax, Tmax, t1/2, AUC0->last, AUC0->inf, CL/F, and Vz/F. The maximum plasma concentration, Cmax, and its corresponding time, Tmax were directly recorded. Elimination rate constant kel was determined by linear regression of the terminal points of the semi-log plot of concentration against time. Elimination half-life was calculated by the formula; t12=0.693/kel. The Area Under the curve value from time 0 to 24 hours was defined as AUCt->last and calculated using the linear trapezoidal rule.

[2] = Toxicity study in healthy ICR mice (body weight, WBC, RBC); settings: for RBC ± SEM / WBC ± SEM: end of day 22
Procedure: 60 ICR mice weighing ˜27 grams were randomly assigned into 5 groups (12 animals, 6 male and 6 female per group), one group being the control group without any drug administration (food only). The drugs were administered twice daily by P.O. or I.P. Group 1 and 3 were administered orally with 50 mg/Kg of Compound 20 and 18 mg/Kg of Compound 14 respectively. Group 2 and 4 mice were injected intraperitoneally with 6.67 mg/Kg of Compound 20 and 5.3 mg/Kg of Compound 14 (dissolved in water) respectively. The body weights of mice were recorded daily for 22 days. At the end of the 22nd day, 3 mice were randomly selected from each group and their blood samples were collected for detailed analysis of white blood cell (WBC) and red blood cell (RBC) counts. The mice were then euthanized with CO2.

[3] = test system: WiDr xenograft tumor model; test: Anticancer efficacy in Balb/c nude mice, WiDr xenograft (Example 8); settings: BALB/c nude mice with WiDr xenograft, 50-100 mg/Kg p.o. or i.p.
Procedure: Female BALB/c nude mice weighing ˜20 g were taken and 5.0 10^6 WiDr cancer cells were implanted into their right flanks with 1:1 mixture of 0.1 mL PBS and matrigel. The mice were arbitrarily chosen by chance and assigned into 7 groups (6 animals/group) and the treatment was started from the same day of the implantation of cancer cells. Mice in group 1 were orally administered two times daily with 100 mg/Kg of Compound 20. Mice in group 2 were orally administered four times per day with 50 mg/Kg of Compound 20. Group 3 mice were injected intraperitoneally 2 times per day with 100 mg/Kg of Compound 20. Group 4 mice were injected intraperitoneally one time per day with 100 mg/Kg and group 5 mice were injected intraperitoneally 2 times per day with 50 mg/Kg of Compound 20. Group 6 was treated with 0.2 mL of 2% DMSO in water intraperitoneally 4 times daily and group 7 mice were assigned as the control group to which tumor was allowed to grow without any drug administration (food only). The tumor volume was recorded every two days using the formula
[formula] where a is the long diameter of the tumor and b is the short diameter of the tumor. […] The inhibition rate was determined using the formula:
[formula] where C is average tumor weight of control group, T is average tumor weight of test group. […] The inhibition rate was determined using the above formula.

## COc1cc(N(c2ccccc2)c2ccccc2)ccc1/C=C(\C#N)C(=O)O [Compound 20]
[1]; 100 mg/kg i.p., 0 h
  Plasma Concentration, individual animals (1#, 2#, 3#): 0 ng/mL
[1]; 100 mg/kg i.p., 0.083 h
  Plasma Concentration, individual animals (1#, 2#, 3#): 18800 ng/mL and 33300 ng/mL and 40400 ng/mL
[1]; 100 mg/kg i.p., 0.25 h
  Plasma Concentration, individual animals (1#, 2#, 3#): 78300 ng/mL and 29400 ng/mL and 60100 ng/mL
[1]; 100 mg/kg i.p., 0.5 h
  Plasma Concentration, individual animals (1#, 2#, 3#): 30400 ng/mL and 30200 ng/mL
[1]; 100 mg/kg i.p., 1 h
  Plasma Concentration, individual animals (1#, 2#, 3#): 45600 ng/mL and 26900 ng/mL
[1]; 100 mg/kg i.p., 2 h
  Plasma Concentration, individual animals (1#, 2#, 3#): 27800 ng/mL and 38900 ng/mL
[1]; 100 mg/kg i.p., 4 h
  Plasma Concentration, individual animals (1#, 2#, 3#): 24000 ng/mL and 26400 ng/mL
[1]; 100 mg/kg i.p., 6 h
  Plasma Concentration, individual animals (1#, 2#, 3#): 14200 ng/mL and 3980 ng/mL and 5360 ng/mL
[1]; 100 mg/kg i.p., 8 h
  Plasma Concentration, individual animals (1#, 2#, 3#): 3160 ng/mL and 2590 ng/mL
[1]; 100 mg/kg i.p., 24 h
  Plasma Concentration, individual animals (1#, 2#, 3#): 41.8 ng/mL and 249 ng/mL and 70.9 ng/mL
[1]; 100 mg/kg i.p.
  CLz/F: 8.32 mL/min/kg
  t1/2Z: 191 min
[1]; 100 mg/kg p.o. and i.p.
  pharmacokinetics parameters (overall assessment): satisfactory
[1]; 100 mg/kg p.o., 0 h
  Plasma Concentration, individual animals (1#, 2#, 3#): 0 ng/mL
[1]; 100 mg/kg p.o., 0.083 h
  Plasma Concentration, individual animals (1#, 2#, 3#): 4050 ng/mL and 4040 ng/mL
[1]; 100 mg/kg p.o., 0.25 h
  Plasma Concentration, individual animals (1#, 2#, 3#): 11300 ng/mL and 6400 ng/mL
[1]; 100 mg/kg p.o., 0.5 h
  Plasma Concentration, individual animals (1#, 2#, 3#): 19100 ng/mL and 20700 ng/mL and 6580 ng/mL
[1]; 100 mg/kg p.o., 1 h
  Plasma Concentration, individual animals (1#, 2#, 3#): 3610 ng/mL and 4830 ng/mL and 12700 ng/mL
[1]; 100 mg/kg p.o., 2 h
  Plasma Concentration, individual animals (1#, 2#, 3#): 3270 ng/mL and 1380 ng/mL and 4790 ng/mL
[1]; 100 mg/kg p.o., 4 h
  Plasma Concentration, individual animals (1#, 2#, 3#): 2880 ng/mL and 5160 ng/mL and 1240 ng/mL
[1]; 100 mg/kg p.o., 6 h
  Plasma Concentration, individual animals (1#, 2#, 3#): 1470 ng/mL and 2230 ng/mL and 3720 ng/mL
[1]; 100 mg/kg p.o., 8 h
  Plasma Concentration, individual animals (1#, 2#, 3#): 5780 ng/mL and 2370 ng/mL and 3880 ng/mL
[1]; 100 mg/kg p.o., 24 h
  Plasma Concentration, individual animals (1#, 2#, 3#): 111 ng/mL and 19.3 ng/mL and 12.8 ng/mL
[1]; 100 mg/kg p.o.
  CLz/F: 26 mL/min/kg
  t1/2Z: 182 min
[1]; ip, 100 mg/kg i.p., 0 h, n = 3, read-out: Plasma Concentration, Mean
  concentration at 0 h: 0 ng/mL
[1]; ip, 100 mg/kg i.p., 0 h, read-out: Plasma Concentration, individual animals (1#, 2#, 3#)
  concentration at 0 h: 0 ng/mL
[1]; ip, 100 mg/kg i.p., 0.083 h, n = 3, read-out: Plasma Concentration, Mean
  concentration at 0.083 h: 30800 ng/mL
[1]; ip, 100 mg/kg i.p., 0.25 h, n = 3, read-out: Plasma Concentration, Mean
  concentration at 0.25 h: 55900 ng/mL
[1]; ip, 100 mg/kg i.p., 0.5 h, n = 3, read-out: Plasma Concentration, Mean
  concentration at 0.5 h: 37300 ng/mL
[1]; ip, 100 mg/kg i.p., 0.5 h, read-out: Plasma Concentration, individual animals (1#, 2#, 3#)
  concentration at 0.5 h: 51400 ng/mL
[1]; ip, 100 mg/kg i.p., 1 h, n = 3, read-out: Plasma Concentration, Mean
  concentration at 1 h: 34800 ng/mL
[1]; ip, 100 mg/kg i.p., 1 h, read-out: Plasma Concentration, individual animals (1#, 2#, 3#)
  concentration at 1 h: 31800 ng/mL
[1]; ip, 100 mg/kg i.p., 2 h, n = 3, read-out: Plasma Concentration, Mean
  concentration at 2 h: 35200 ng/mL
[1]; ip, 100 mg/kg i.p., 2 h, read-out: Plasma Concentration, individual animals (1#, 2#, 3#)
  concentration at 2 h: 38800 ng/mL
[1]; ip, 100 mg/kg i.p., 4 h, n = 3, read-out: Plasma Concentration, Mean
  concentration at 4 h: 25100 ng/mL
[1]; ip, 100 mg/kg i.p., 4 h, read-out: Plasma Concentration, individual animals (1#, 2#, 3#)
  concentration at 4 h: 25000 ng/mL
[1]; ip, 100 mg/kg i.p., 6 h
  concentration at 6 h: 7850 ng/mL
[1]; ip, 100 mg/kg i.p., 8 h, n = 3, read-out: Plasma Concentration, Mean
  concentration at 8 h: 2840 ng/mL
[1]; ip, 100 mg/kg i.p., 8 h, read-out: Plasma Concentration, individual animals (1#, 2#, 3#)
  concentration at 8 h: 2760 ng/mL
[1]; ip, 100 mg/kg i.p., 24 h
  concentration at 24 h: 121 ng/mL
[1]; po, 100 mg/kg p.o., 0 h, n = 3, read-out: Plasma Concentration, Mean
  concentration at 0 h: 0 ng/mL
[1]; po, 100 mg/kg p.o., 0 h, read-out: Plasma Concentration, individual animals (1#, 2#, 3#)
  concentration at 0 h: 0 ng/mL
[1]; po, 100 mg/kg p.o., 0.083 h, n = 3, read-out: Plasma Concentration, Mean
  concentration at 0.083 h: 3430 ng/mL
[1]; po, 100 mg/kg p.o., 0.083 h, read-out: Plasma Concentration, individual animals (1#, 2#, 3#)
  concentration at 0.083 h: 2210 ng/mL
[1]; po, 100 mg/kg p.o., 0.25 h, n = 3, read-out: Plasma Concentration, Mean
  concentration at 0.25 h: 9130 ng/mL
[1]; po, 100 mg/kg p.o., 0.25 h, read-out: Plasma Concentration, individual animals (1#, 2#, 3#)
  concentration at 0.25 h: 9690 ng/mL
[1]; po, 100 mg/kg p.o., 0.5 h, n = 3, read-out: Plasma Concentration, Mean
  concentration at 0.5 h: 15500 ng/mL
[1]; po, 100 mg/kg p.o., 1 h, n = 3, read-out: Plasma Concentration, Mean
  concentration at 1 h: 7050 ng/mL
[1]; po, 100 mg/kg p.o., 2 h, n = 3, read-out: Plasma Concentration, Mean
  concentration at 2 h: 3150 ng/mL
[1]; po, 100 mg/kg p.o., 4 h, n = 3, read-out: Plasma Concentration, Mean
  concentration at 4 h: 3090 ng/mL
[1]; po, 100 mg/kg p.o., 6 h
  concentration at 6 h: 2470 ng/mL
[1]; po, 100 mg/kg p.o., 8 h, n = 3, read-out: Plasma Concentration, Mean
  concentration at 8 h: 4010 ng/mL
[1]; po, 100 mg/kg p.o., 24 h
  concentration at 24 h: 47.7 ng/mL
[1]; ip, 100 mg/kg i.p.
  AUC(0-inf): 201 µg·h/mL
  AUC(0-t): 201 µg·h/mL
  Cmax: 61300 ng/mL
  Tmax: 30 min
  Vd/F: 2.35 L/kg
[1]; po, 100 mg/kg p.o.
  AUC(0-inf): 66 µg·h/mL
  AUC(0-t): 65.7 µg·h/mL
  Cmax: 17500 ng/mL
  Tmax: 40 min
  Vd/F: 6.55 L/kg
[2]; 6.67 mg/kg i.p. twice daily
  Weight in grams (Day 0): 26.98 grams
  Weight in grams (Day 22): 33.54 grams
  RBC ± SEM: 1.82 ± 0.05 10^13/L
  WBC ± SEM: 3.83 ± 0.38 10^10/L
[2]; 50 mg/kg p.o. twice daily
  Weight in grams (Day 0): 26.91 grams
  Weight in grams (Day 22): 32.61 grams
  RBC ± SEM: 1.75 ± 0.06 10^13/L
  WBC ± SEM: 4.10 ± 0.3 10^10/L
[3]
  systemic toxicity (inference from Example 8): without much systemic toxicity
